Test results from ChEMBL document CHEMBL3885881, “DrugMatrix”.

Assays:
Rattus norvegicus [1] = species on record: Rattus norvegicus; test: DrugMatrix - Regimen: Daily Repeat; format: toxicity, organism-based, Sprague-Dawley; design: regimen Daily Repeat, gender Male, age 6-8 weeks; settings: in vivo, po, 1200 mg/kg, […], route oral GAVAGE, dose level High, time 14 day
Rattus norvegicus [2] = species on record: Rattus norvegicus; format: toxicity, organism-based, Sprague-Dawley; settings: in vivo, po, 24 h, route oral GAVAGE, time 1 day, […]; for MEAN CORPUSCULAR HEMOGLOBIN CONCENTRATION / MEAN CORPUSCULAR VOLUME / ABSOLUTE BASOPHIL / ABSOLUTE EOSINOPHIL / ABSOLUTE LYMPHOCYTE / ABSOLUTE MONOCYTE / BASOPHIL / EOSINOPHIL / ERYTHROCYTE COUNT / HEMATOCRIT / HEMOGLOBIN / LEUKOCYTE COUNT / LYMPHOCYTE / MEAN CORPUSCULAR HEMOGLOBIN / MONOCYTE / NEUTROPHIL / PLATELET COUNT: tissue Blood; for ALANINE AMINOTRANSFERASE / ALBUMIN / ALKALINE PHOSPHATASE / ASPARTATE AMINOTRANSFERASE / BLOOD UREA NITROGEN / CARBON DIOXIDE / CHLORIDE / CHOLESTEROL / CREATINE PHOSPHOKINASE / CREATININE / GLUCOSE / LACTATE DEHYDROGENASE / LIPASE / PHOSPHORUS / POTASSIUM / SODIUM / TOTAL BILIRUBIN / TOTAL PROTEIN / URIC ACID: tissue Plasma
Description: DrugMatrix - Regimen: Single

[3] = 0 mg/kg, vehicle control, dose level Control

CC[C@H](C)C(=O)O[C@H]1C[C@H](O)C=C2C=C[C@H](C)[C@H](CC[C@@H](O)C[C@@H](O)CC(=O)O)[C@H]21 [PRAVASTATIN]
MONOCYTE (Rattus norvegicus [1]; tissue Blood): 6.57% | NEUTROPHIL (Rattus norvegicus [1]; tissue Blood): 58.53% | PLATELET COUNT (Rattus norvegicus [1]; tissue Blood): 1135 x10E3/uL | ALANINE AMINOTRANSFERASE (Rattus norvegicus [1]; tissue Plasma): 669.33 u/L | ALBUMIN (Rattus norvegicus [1]; tissue Plasma): 3.17 G/DL | ALKALINE PHOSPHATASE (Rattus norvegicus [1]; tissue Plasma): 461 u/L | ASPARTATE AMINOTRANSFERASE (Rattus norvegicus [1]; tissue Plasma): 5256.67 u/L | BLOOD UREA NITROGEN (Rattus norvegicus [1]; tissue Plasma): 60.67 mg/dL | CARBON DIOXIDE (Rattus norvegicus [1]; tissue Plasma): 33.33 mmol/L | CHLORIDE (Rattus norvegicus [1]; tissue Plasma): 95.67 MEQ/L | CHOLESTEROL (Rattus norvegicus [1]; tissue Plasma): 47 mg/dL | CREATINE PHOSPHOKINASE (Rattus norvegicus [1]; tissue Plasma): 10626.67 u/L | CREATININE (Rattus norvegicus [1]; tissue Plasma): 0.97 mg/dL | GLUCOSE (Rattus norvegicus [1]; tissue Plasma): 113.67 mg/dL | LACTATE DEHYDROGENASE (Rattus norvegicus [1]; tissue Plasma): 1229.67 u/L | LIPASE (Rattus norvegicus [1]; tissue Plasma): 228.5 u/L | PHOSPHORUS (Rattus norvegicus [1]; tissue Plasma): 11.03 mg/dL | POTASSIUM (Rattus norvegicus [1]; tissue Plasma): 6.93 MEQ/L | SODIUM (Rattus norvegicus [1]; tissue Plasma): 141 MEQ/L | TOTAL BILIRUBIN (Rattus norvegicus [1]; tissue Plasma): 0.3 mg/dL | TOTAL PROTEIN (Rattus norvegicus [1]; tissue Plasma): 5.53 G/DL | URIC ACID (Rattus norvegicus [1]; tissue Plasma): 1.53 mg/dL | MEAN CORPUSCULAR HEMOGLOBIN CONCENTRATION (Rattus norvegicus [2]; 0 mg/kg, dose level Control): 30.5 G/DL | MEAN CORPUSCULAR VOLUME (Rattus norvegicus [2]; 0 mg/kg, dose level Control): 67.21 fL | ABSOLUTE BASOPHIL (Rattus norvegicus [2]; [3]): 50 cells/µL | ABSOLUTE EOSINOPHIL (Rattus norvegicus [2]; [3]): 32.5 cells/µL | ABSOLUTE LYMPHOCYTE (Rattus norvegicus [2]; [3]): 7980 cells/µL | ABSOLUTE MONOCYTE (Rattus norvegicus [2]; [3]): 170 cells/µL | BASOPHIL (Rattus norvegicus [2]; [3]): 0.58% | EOSINOPHIL (Rattus norvegicus [2]; [3]): 0.34% | ERYTHROCYTE COUNT (Rattus norvegicus [2]; [3]): 6.56 x10E6/uL | HEMATOCRIT (Rattus norvegicus [2]; [3]): 44.14% | HEMOGLOBIN (Rattus norvegicus [2]; [3]): 13.45 G/DL | LEUKOCYTE COUNT (Rattus norvegicus [2]; [3]): 9.51 x10E3/uL | LYMPHOCYTE (Rattus norvegicus [2]; [3]): 83.6% | MEAN CORPUSCULAR HEMOGLOBIN (Rattus norvegicus [2]; [3]): 20.5 pg | MONOCYTE (Rattus norvegicus [2]; [3]): 1.86% | NEUTROPHIL (Rattus norvegicus [2]; [3]): 12.7% | PLATELET COUNT (Rattus norvegicus [2]; [3]): 1240.38 x10E3/uL | ALANINE AMINOTRANSFERASE (Rattus norvegicus [2]; [3]): 47.12 u/L | ALBUMIN (Rattus norvegicus [2]; [3]): 3.59 G/DL | ALKALINE PHOSPHATASE (Rattus norvegicus [2]; [3]): 461.38 u/L | ASPARTATE AMINOTRANSFERASE (Rattus norvegicus [2]; [3]): 62.25 u/L | BLOOD UREA NITROGEN (Rattus norvegicus [2]; [3]): 12.63 mg/dL | CARBON DIOXIDE (Rattus norvegicus [2]; [3]): 39.5 mmol/L | CHLORIDE (Rattus norvegicus [2]; [3]): 105.38 MEQ/L | CHOLESTEROL (Rattus norvegicus [2]; [3]): 74.25 mg/dL | CREATINE PHOSPHOKINASE (Rattus norvegicus [2]; [3]): 282.88 u/L | CREATININE (Rattus norvegicus [2]; [3]): 0.61 mg/dL | GLUCOSE (Rattus norvegicus [2]; [3]): 176.25 mg/dL | LACTATE DEHYDROGENASE (Rattus norvegicus [2]; [3]): 190.25 u/L | LIPASE (Rattus norvegicus [2]; [3]): 28 u/L | PHOSPHORUS (Rattus norvegicus [2]; [3]): 12.68 mg/dL | POTASSIUM (Rattus norvegicus [2]; [3]): 6.6 MEQ/L | SODIUM (Rattus norvegicus [2]; [3]): 151.13 MEQ/L | TOTAL BILIRUBIN (Rattus norvegicus [2]; [3]): 0.34 mg/dL | TOTAL PROTEIN (Rattus norvegicus [2]; [3]): 6.09 G/DL | URIC ACID (Rattus norvegicus [2]; [3]): 1.06 mg/dL | ABSOLUTE BASOPHIL (Rattus norvegicus [2]; 1200 mg/kg, dose level High): 12.5 cells/µL | ABSOLUTE EOSINOPHIL (Rattus norvegicus [2]; 1200 mg/kg, dose level High): 41.3 cells/µL | ABSOLUTE LYMPHOCYTE (Rattus norvegicus [2]; 1200 mg/kg, dose level High): 7270 cells/µL | ABSOLUTE MONOCYTE (Rattus norvegicus [2]; 1200 mg/kg, dose level High): 270 cells/µL | BASOPHIL (Rattus norvegicus [2]; 1200 mg/kg, dose level High): 0.35% | EOSINOPHIL (Rattus norvegicus [2]; 1200 mg/kg, dose level High): 0.46% | ERYTHROCYTE COUNT (Rattus norvegicus [2]; 1200 mg/kg, dose level High): 6.38 x10E6/uL | HEMATOCRIT (Rattus norvegicus [2]; 1200 mg/kg, dose level High): 42.34% | HEMOGLOBIN (Rattus norvegicus [2]; 1200 mg/kg, dose level High): 12.95 G/DL | LEUKOCYTE COUNT (Rattus norvegicus [2]; 1200 mg/kg, dose level High): 9.2 x10E3/uL | LYMPHOCYTE (Rattus norvegicus [2]; 1200 mg/kg, dose level High): 78.89% | MEAN CORPUSCULAR HEMOGLOBIN (Rattus norvegicus [2]; 1200 mg/kg, dose level High): 20.29 pg | MEAN CORPUSCULAR HEMOGLOBIN CONCENTRATION (Rattus norvegicus [2]; 1200 mg/kg, dose level High): 30.55 G/DL | MEAN CORPUSCULAR VOLUME (Rattus norvegicus [2]; 1200 mg/kg, dose level High): 66.41 fL | MONOCYTE (Rattus norvegicus [2]; 1200 mg/kg, dose level High): 2.9% | NEUTROPHIL (Rattus norvegicus [2]; 1200 mg/kg, dose level High): 16.21% | PLATELET COUNT (Rattus norvegicus [2]; 1200 mg/kg, dose level High): 1234.38 x10E3/uL | ALANINE AMINOTRANSFERASE (Rattus norvegicus [2]; 1200 mg/kg, dose level High): 73.25 u/L | ALBUMIN (Rattus norvegicus [2]; 1200 mg/kg, dose level High): 3.64 G/DL | ALKALINE PHOSPHATASE (Rattus norvegicus [2]; 1200 mg/kg, dose level High): 563.12 u/L | ASPARTATE AMINOTRANSFERASE (Rattus norvegicus [2]; 1200 mg/kg, dose level High): 74.62 u/L | BLOOD UREA NITROGEN (Rattus norvegicus [2]; 1200 mg/kg, dose level High): 12.25 mg/dL | CARBON DIOXIDE (Rattus norvegicus [2]; 1200 mg/kg, dose level High): 36.62 mmol/L | CHLORIDE (Rattus norvegicus [2]; 1200 mg/kg, dose level High): 108 MEQ/L | CHOLESTEROL (Rattus norvegicus [2]; 1200 mg/kg, dose level High): 74.87 mg/dL | CREATINE PHOSPHOKINASE (Rattus norvegicus [2]; 1200 mg/kg, dose level High): 344.5 u/L | CREATININE (Rattus norvegicus [2]; 1200 mg/kg, dose level High): 0.67 mg/dL | GLUCOSE (Rattus norvegicus [2]; 1200 mg/kg, dose level High): 193.13 mg/dL | LACTATE DEHYDROGENASE (Rattus norvegicus [2]; 1200 mg/kg, dose level High): 126.88 u/L | LIPASE (Rattus norvegicus [2]; 1200 mg/kg, dose level High): 34.88 u/L | PHOSPHORUS (Rattus norvegicus [2]; 1200 mg/kg, dose level High): 12.5 mg/dL | POTASSIUM (Rattus norvegicus [2]; 1200 mg/kg, dose level High): 6.55 MEQ/L | SODIUM (Rattus norvegicus [2]; 1200 mg/kg, dose level High): 153.75 MEQ/L | TOTAL BILIRUBIN (Rattus norvegicus [2]; 1200 mg/kg, dose level High): 0.27 mg/dL | TOTAL PROTEIN (Rattus norvegicus [2]; 1200 mg/kg, dose level High): 6.12 G/DL | URIC ACID (Rattus norvegicus [2]; 1200 mg/kg, dose level High): 1.09 mg/dL
